Tested on: left hind paw inflammation in rats with adjuvant arthritis
Experiment: Therapeutic Treatment of Adjuvant Arthritis in Rats (left hind paw inflammation)
Format: in vivo, Carworth Wistar (Lewis) rats
Procedure: Carworth Wistar (Lewis) rats weighing approximately 200 grams are anesthetized with ether, weighed and their hind paws measured by means of a mercury displacement method. The left hind paw is injected intradermally with heat-killed Mycobacterium tuberculosis in white mineral oil. Measurements of body weight and paw volume are obtained on days 2, 5, 10, 15, 20 and 25. Therapeutic treatment is started on day 15.
Following the injection with Mycobacterium tuberculosis, a primary inflammation develops immediately in the injected paw. Secondary inflammation of the joints of the other legs and feet, nodules on the tail and red spots on the ears develop about day 10-15. The object of the test is to determine the anti-inflammatory effects of the drug treatments.
Groups of rats (five rats/group) are treated as follows: One group receives no Mycobacterium tuberculosis and is the negative control group. One group receives Mycobacterium tuberculosis but no anti-inflammatory drug and is the positive control group. Other groups receive Mycobacterium tuberculosis and either oral or topical test compounds or standard anti-inflammatory agents beginning on day 15 and are considered experimental groups. Experimental anti-inflammatory and standard anti-inflammatory compounds are administered either once every five days, i.e., after grading on days 15 and 20, or once/day on days 15-24.
In the topical studies a measured amount of drug is mixed into about 0.5 ml of SILASTIC* Medical Adhesive (or other appropriate vehicle) and applied to cover the left hind paw. Rats so treated are housed individually to eliminate the removal of the medication by another rat. The following, Tables 1 and 2 illustrate the anti-inflammatory potency and efficacy of the oral and topical treatments.

[1] = oral, once per day, 0.00375 mg/kg
[2] = oral, once per day, 0.00750 mg/kg
[3] = oral, once per day, 0.01500 mg/kg
[4] = oral, once per day, 0.03000 mg/kg
[5] = oral, once per day, 0.06250 mg/kg
[6] = oral, once per day, 0.12500 mg/kg

Compound: CC1(C)O[C@@H]2C[C@H]3[C@@H]4C[C@H](F)C5=CC(=O)C=C[C@]5(C)[C@@]4(F)[C@@H](O)C[C@]3(C)[C@]2(C(=O)CO)O1 [Compound B, fluocinolone acetonide, reference compound]
- Percent Inhibition of Left Hind Paw Inflammation [1]: 19%
- Percent Inhibition of Left Hind Paw Inflammation [2]: 15%
- Percent Inhibition of Left Hind Paw Inflammation [3]: 32%
- Percent Inhibition of Left Hind Paw Inflammation [4]: 66%
- Percent Inhibition of Left Hind Paw Inflammation [5]: 76%
- Percent Inhibition of Left Hind Paw Inflammation [6]: 64%

Compound: CC1(C)O[C@@H]2C[C@H]3[C@@H]4C[C@H](F)C5=CC6(C=C[C@]5(C)[C@@]4(F)[C@@H](O)C[C@]3(C)[C@]2(C(=O)CO)O1)SCCS6 [Compound A, 6α,9-difluoropregna-1,4-diene-11β,16α,17,21-tetrol-3,20-dione-3-ethylenedithioketal-16,17-acetonide]
- Percent Inhibition of Left Hind Paw Inflammation (oral, once every five days, 0.075 mg/kg/5 days): 14.7%
- Percent Inhibition of Left Hind Paw Inflammation (oral, once every five days, 0.150 mg/kg/5 days): 15.3%
- Percent Inhibition of Left Hind Paw Inflammation (oral, once every five days, 0.300 mg/kg/5 days): 18.1%
- Percent Inhibition of Left Hind Paw Inflammation (oral, once every five days, 0.625 mg/kg/5 days): 29.0%
- Percent Inhibition of Left Hind Paw Inflammation (oral, once every five days, 1.250 mg/kg/5 days): 35.0%
- Percent Inhibition of Left Hind Paw Inflammation (oral, once every five days, 2.500 mg/kg/5 days): 44.3%
- Percent Inhibition of Left Hind Paw Inflammation [1]: 5%
- Percent Inhibition of Left Hind Paw Inflammation [2]: 9%
- Percent Inhibition of Left Hind Paw Inflammation [3]: 43%
- Percent Inhibition of Left Hind Paw Inflammation [4]: 34%
- Percent Inhibition of Left Hind Paw Inflammation [5]: 60%
- Percent Inhibition of Left Hind Paw Inflammation [6]: 83%
- Percent Inhibition of Left Hind Paw Inflammation (oral, once per day, 0.25000 mg/kg): 95%
- Percent Inhibition of Left Hind Paw Inflammation (topical (in SILASTIC Medical Adhesive), once every five days, 0.300 mg/kg/5 days): 31.1%
- Percent Inhibition of Left Hind Paw Inflammation (topical (in SILASTIC Medical Adhesive), once every five days, 0.625 mg/kg/5 days): 52.6%
- Percent Inhibition of Left Hind Paw Inflammation (topical (in SILASTIC Medical Adhesive), once every five days, 1.250 mg/kg/5 days): 57.5%
- Percent Inhibition of Left Hind Paw Inflammation (topical (in SILASTIC Medical Adhesive), once every five days, 2.500 mg/kg/5 days): 64.5%

Reference: patent US4014999A, “Halo-steroidal thioketals for treating inflammation” (Ortho Pharmaceutical Corporation, priority 1976, dated 1977)
